Consider two compounds from US20050039223A1, “Knock-in-mouse” (priority 2002, published 2005).

In assay [1] the target is T1, nAChR containing α4-T265I (control α4, mutated α4 and β2) (Homo sapiens, UniProt P17787+P43681, T293I).
T1 construct: expressed in transfected cells; host or cells: Xenopus oocytes, nuclear cDNA injection
As to the kind of experiment: ACh- and CBZ-dose effect, two electrode voltage clamp in Xenopus oocytes expressing receptors containing α4-T265I. The format is cell-based. The protocol:
Expression experiments in Xenopus oocytes were conducted as previously described (2). Nuclear cDNA injections were conducted using a ratio of 0.5 control α4, 0.5 mutated α4 and 1 β2 (total amount 2 ng/oocytes) (3). The oocytes were kept in BARTH solution containing 88 mM NaCl, 1 mM KCl, 2.4 mM NaHCO3, 10 mM HEPES, 0.82 mM MgSO47H2O, 0.33 mM Ca(NO3)2.4H2O, 0.41 mM CaCl2.6H2O, pH 7.4, adjusted with NaOH and supplemented with kanamycin (20 μg/ml), penicillin (100 μg/ml) and streptomycin (100 μg/ml). Recordings were made 2 to 3 days later using the two electrode voltage clamp technique with a GENE-CLAMP amplifier (Axon Instrument). During the experiments the oocytes were continuously rinsed with OR2 solution: 82.5 mM NaCl, 2.5 mM KCl, 2.5 mM CaCl2, 5 mM HEPES, pH 7.4, adjusted with NaOH. Unless stated otherwise, the holding potential was −100 mV and the experiments were performed at 18° C. ACh dose response curves were best fitted by the sum of two empirical Hill equations: y=Imax{a/(1+(EC50H/x)^nH1)+(1−a)/(1+(EC50L/x)^nH2)} (equation (1)). Imax is the maximal current amplitude and x is the agonist concentration. EC50H, nH1 and a are the half-effective concentration, the Hill coefficient the percentage of receptors in high-affinity state, respectively, whereas EC50L and nH2 correspond to the half-effective concentration and the Hill coefficient in low-affinity state. […]
(In general: Two-electrode voltage clamp holds a large cell at a set potential and records current.)

The subject of a further assay is ADNFLE. As to conditions: ADNFLE patients; antiepileptic drug resistant cases also exist; cited from earlier work.

T1 sequence (P43681 29-627 T293I limits assumed): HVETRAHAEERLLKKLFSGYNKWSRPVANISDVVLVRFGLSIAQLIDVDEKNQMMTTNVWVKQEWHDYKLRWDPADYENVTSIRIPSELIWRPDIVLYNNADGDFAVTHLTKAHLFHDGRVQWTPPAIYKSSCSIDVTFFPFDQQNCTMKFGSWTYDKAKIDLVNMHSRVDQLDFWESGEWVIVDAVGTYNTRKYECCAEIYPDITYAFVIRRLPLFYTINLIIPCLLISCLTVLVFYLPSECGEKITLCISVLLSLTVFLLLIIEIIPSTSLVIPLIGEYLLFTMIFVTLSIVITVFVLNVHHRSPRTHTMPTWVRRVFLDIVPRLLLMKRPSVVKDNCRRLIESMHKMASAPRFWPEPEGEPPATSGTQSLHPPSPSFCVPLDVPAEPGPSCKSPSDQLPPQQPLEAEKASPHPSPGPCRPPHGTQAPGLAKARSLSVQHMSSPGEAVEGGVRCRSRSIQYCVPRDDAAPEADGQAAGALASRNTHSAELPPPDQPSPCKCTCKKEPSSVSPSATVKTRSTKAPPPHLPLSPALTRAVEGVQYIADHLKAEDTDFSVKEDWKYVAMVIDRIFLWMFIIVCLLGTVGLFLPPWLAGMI
T1 sequence (P43681 27-627, stated change not applied): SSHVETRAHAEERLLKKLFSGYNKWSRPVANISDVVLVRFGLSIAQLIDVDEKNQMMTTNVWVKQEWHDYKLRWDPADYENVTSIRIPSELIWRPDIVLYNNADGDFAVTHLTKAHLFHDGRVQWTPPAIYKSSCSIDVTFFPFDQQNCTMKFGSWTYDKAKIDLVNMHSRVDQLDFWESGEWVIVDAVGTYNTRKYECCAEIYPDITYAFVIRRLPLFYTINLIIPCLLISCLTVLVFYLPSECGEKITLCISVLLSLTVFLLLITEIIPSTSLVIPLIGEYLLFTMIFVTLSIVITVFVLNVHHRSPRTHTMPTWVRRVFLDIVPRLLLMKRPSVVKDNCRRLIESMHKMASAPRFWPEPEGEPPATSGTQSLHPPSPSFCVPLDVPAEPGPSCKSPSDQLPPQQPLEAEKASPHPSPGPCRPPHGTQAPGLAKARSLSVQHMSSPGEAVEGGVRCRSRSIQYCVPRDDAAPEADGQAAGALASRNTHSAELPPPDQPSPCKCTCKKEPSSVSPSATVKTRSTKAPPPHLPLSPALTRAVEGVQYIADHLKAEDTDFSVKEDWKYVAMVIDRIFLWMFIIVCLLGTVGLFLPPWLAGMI
T1 sequence (P17787 26-502): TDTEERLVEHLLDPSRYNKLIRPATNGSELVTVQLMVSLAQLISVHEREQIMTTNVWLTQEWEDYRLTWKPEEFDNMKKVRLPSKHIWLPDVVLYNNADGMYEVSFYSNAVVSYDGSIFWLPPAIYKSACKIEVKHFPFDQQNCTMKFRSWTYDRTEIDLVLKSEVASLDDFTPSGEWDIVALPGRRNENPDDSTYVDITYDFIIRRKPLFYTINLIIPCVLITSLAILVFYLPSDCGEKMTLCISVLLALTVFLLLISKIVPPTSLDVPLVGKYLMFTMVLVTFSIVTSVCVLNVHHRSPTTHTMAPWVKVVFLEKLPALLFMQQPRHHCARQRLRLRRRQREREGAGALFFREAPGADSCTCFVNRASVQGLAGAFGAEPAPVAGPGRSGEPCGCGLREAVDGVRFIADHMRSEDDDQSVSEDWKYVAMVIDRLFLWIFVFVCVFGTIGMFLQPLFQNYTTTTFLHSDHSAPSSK

In the case of `CC(=O)OCC[N+](C)(C)C` [ACh], the “ACh-sensitivity of the mutated receptors” value in assay [1] (α4-T265I mutated receptors compared with control, Xenopus oocytes) is recorded as “increased”. Take `NC(=O)N1c2ccccc2C=Cc2ccccc21` [Carbamazepin, Carbamazepine]: in assay [1] (α4-T265I compared with control, CBZ inhibition of ACh-evoked currents), the Carbamazepin-sensitivity entry is on record as “non-increased”. Also, the “Treatability of ADNFLE” value in the assay with ADNFLE is recorded as “can normally be well treated”.
